Counter-ions that a name gives are not always drawn.
tested on: acetylcholine-induced abdominal constriction; test: animal or person; type: in vivo, mice; settings: Mus musculus, iv, 3 mg./kg. i.v.; read-out: Ach percent inhibition

For `Cc1c(C(=O)c2cccc3ccccc23)c2ccccc2n1CC(O)CN1CCCC1` (centres unmarked) [Example 31F], the inhibition in vivo at 3 mg/kg was 0%.

same assay, conditions: Mus musculus, po, 30 mg./kg. oral; read-out: Ach percent inhibition

Compared with `Cc1c(C(=O)c2ccc(CNC(N)=NC#N)cc2)c2ccccc2n1CCN1CCOCC1` [Example 10, 2-methyl-3-(4-cyanoguanidinylmethylbenzoyl)-1-[2-(4-morpholinyl)ethyl]-1H-indole], `Cc1c(C(=O)c2ccc(C=O)cc2)c2ccccc2n1CCN1CCOCC1` [Example 11, 2-methyl-3-(4-formylbenzoyl)-1-[2-(4-morpholinyl)ethyl]-1H-indole] is higher in inhibition in vivo at 30 mg/kg: 0% for the first, 20% for the second.

same assay, conditions: Mus musculus, po, 100 mg./kg. oral; read-out: Ach percent inhibition

First: CCCCNc1ccc(C(=O)c2c(C)n(CCN3CCOCC3)c3ccccc23)cc1 [Example 8B, 2-methyl-3-(4-butylaminobenzoyl)-1-[2-(4-morpholinyl)ethyl]-1H-indole]
Second: COCCNc1ccc(C(=O)c2c(C)n(CCN3CCOCC3)c3ccccc23)cc1 [Example 26A, 2-methyl-3-[4-(2-methoxyethylamino)benzoyl]-1-[2-(4-morpholinyl)ethyl]-1H-indole]
The inhibition in vivo at 100 mg/kg of the first is lower: 35% for the first, 40% for the second.

First: Cc1c(C(=NO)c2ccccc2F)c2cc(F)ccc2n1CCCN1CCOCC1 [Example 13B, 5-fluoro-3-(2-fluorobenzoyl)-2-methyl-1-[3-(4-morpholinyl)propyl]-1H-indole oxime]
Second: Cc1c(/C(=N\O)c2ccccc2F)c2ccccc2n1CCN1CCOCC1 [Example 13C, (E)-3-(2-fluorobenzoyl)-2-methyl-1-[2-(4-morpholinyl)ethyl]-1H-indole oxime]
The inhibition in vivo at 100 mg/kg of the first is lower: 0% for the first, 20% for the second.

First: Cc1c(C(=O)c2ccc(-n3cccc3)cc2)c2ccccc2n1CCN1CCOCC1 [Example 14, 2-methyl-3-[4-(1H-pyrrol-1-yl)benzoyl]-1-[2-(4-morpholinyl)ethyl]-1H-indole]
Second: Cc1c(C(=O)c2ccc(N3CCC(O)CC3)cc2)c2ccccc2n1CCN1CCOCC1 [Example 26D]
The inhibition in vivo at 100 mg/kg of the first is higher: 40% for the first, 30% for the second.

`Cc1c(C(=O)c2ccccc2O)c2ccccc2n1CCN1CCOCC1` [Example 16A, 2-methyl-3-(2-hydroxybenzoyl)-1-[2-(4-morpholinyl)ethyl]-1H-indole] and `Cc1c(C(=O)c2ccccc2)c2cc(O)ccc2n1CCN1CCOCC1` [Example 30, 3-benzoyl-5-hydroxy-2-methyl-1-[2-(4-morpholinyl)ethyl]-1H-indole] are the same in inhibition in vivo at 100 mg/kg: 10% for the first, 10% for the second.

Compared with `Cc1c(C(=O)c2ccc(O)cc2)c2cc(F)ccc2n1CCCN1CCOCC1` [Example 16B, 5-fluoro-2-methyl-3-(4-hydroxybenzoyl)-1-[3-(4-morpholinyl)propyl]-1H-indole hydrochloride], `COc1ccc(C(=O)c2c(C)n(CCN3CCOCC3)c3cc(O)ccc23)cc1` [Example 18, 6-hydroxy-2-methyl-3-(4-methoxybenzoyl)-1-[2-(4-morpholinyl)ethyl]-1H-indole hydrochloride hydrate (3:4)] is higher in inhibition in vivo at 100 mg/kg: 20% for the first, 30% for the second.

`COc1ccc(C(=O)C=Cc2c(C)n(CCN3CCOCC3)c3ccccc23)cc1` [Example 19, 1-{2-methyl-1-[2-(4-morpholinyl)ethyl]-1H-indol-3-yl}-3-(4-methoxyphenyl)propen-3-one monohydrochloride] and `Cc1c(C(=O)C=Cc2ccccc2F)c2ccccc2n1CCN1CCOCC1` [Example 20B, 3-(2-fluorocinnamoyl)-2-methyl-1-[2-(4-morpholinyl)ethyl]-1H-indole] are the same in inhibition in vivo at 100 mg/kg: 40% for the first, 40% for the second.

Going from `Cc1c(C(=O)c2ccc(N3CCCC(O)C3)cc2)c2ccccc2n1CCN1CCOCC1` (centres unmarked) [Example 26B] to `Cc1c(C(=O)c2ccc(N3CCNCC3)cc2)c2ccccc2n1CCN1CCOCC1` [Example 26C], the inhibition in vivo at 100 mg/kg falls from 40% to 30%.

Going from `Cc1c(C(=O)c2ccc(N3CCOCC3)cc2)c2ccccc2n1CCN1CCOCC1` [Example 26G] to `COc1ccc(C(=O)c2c(C)n(CCN3CC[S+]([O-])CC3)c3ccccc23)cc1` [Example 29B, 2-methyl-3-(4-methoxybenzoyl)-1-[2-(4-thiomorpholinyl)ethyl]-1H-indole S-oxide maleate], the inhibition in vivo at 100 mg/kg rises from 20% to 60%.

Going from `COc1ccc(C(=O)c2c(C)n(CCCNCCCCl)c3ccccc23)cc1` [Example 28, 1-[3-(3-chloropropylamino)propyl]-2-methyl-3-(4-methoxybenzoyl)-1H-indole hydrochloride] to `CCN(CC)CC(O)Cn1c(C)c(C(=O)c2ccc(OC)cc2)c2ccccc21` (centres unmarked) [Example 31-O], the inhibition in vivo at 100 mg/kg rises from 90% to 100%.

First: COc1ccc(C(=O)c2c(C)n(CCCN3CC[S+]([O-])CC3)c3ccc(F)cc23)cc1 [Example 29A, 5fluoro-2-methyl-3-(4-methoxybenzoyl)-1-[3-(4-thiomorpholinyl)propyl]-1H-indole S-oxide maleate]
Second: COc1ccc(C(=O)c2c(C)n(CC[N+]3([O-])CC[S+]([O-])CC3)c3ccccc23)cc1 (centres unmarked) [Example 29C, 2-methyl-3-(4-methoxybenzoyl)-1-[2-(4-thiomorpholinyl)ethyl]-1H-indole S,N-dioxide dihydrate]
The inhibition in vivo at 100 mg/kg of the first is higher: 60% for the first, 0% for the second.

same assay, conditions: Mus musculus, po, 150 mg./kg. oral; read-out: Ach percent inhibition

With `Cc1c(C(=O)c2ccc(NS(C)(=O)=O)cc2)c2ccccc2n1CCN1CCOCC1` [Example 5E] the inhibition in vivo at 150 mg/kg was 38%.

same assay, conditions: Mus musculus, po, 300 mg./kg. oral; read-out: Ach percent inhibition

Going from `Cc1c(C(=O)c2ccc(NS(C)(=O)=O)cc2)c2ccccc2n1CCN1CCOCC1` [Example 5E] to `Cc1c(C(=O)c2ccc(NC(N)=O)cc2)c2ccccc2n1CCN1CCOCC1` [Example 9, 2-methyl-3-(4-carbamylaminobenzoyl)-1-[2-(4-morpholinyl)ethyl]-1H-indole], the inhibition in vivo at 300 mg/kg falls from 40% to 27%.

same assay, conditions: Mus musculus, po; read-out: Ach ED50

`CCC(=O)Nc1ccc(C(=O)c2c(C)n(CCN3CCOCC3)c3ccccc23)cc1` [Example 5F] and `Cc1c(C(=O)c2ccc(-n3ccnc3)cc2)c2ccccc2n1CCN1CCOCC1` [Example 26E] are within 1.5-fold of each other in ED50: 76 mg/kg for the first, 73.1 mg/kg for the second.

`COc1ccc(C(=NO)c2c(C)n(CCN3CCOCC3)c3ccccc23)cc1` [Example 13A, 2-methyl-3-(4-methoxybenzoyl)-1-[2-(4-morpholinyl)ethyl]-1H-indole oxime] and `COc1ccc(C(=O)c2c(C)n(CC[N+]3([O-])CCOCC3)c3ccccc23)cc1` [Example 15, 2-methyl-3-(4-methoxybenzoyl)-1-[2-(4-morpholinyl)ethyl]-1H-indole/N(MOR)-oxide] are within 1.5-fold of each other in ED50: 139 mg/kg for the first, 155 mg/kg for the second.

First: Cc1ccccc1C=CC(=O)c1c(C)n(CCN2CCOCC2)c2ccccc12 [Example 20A, 3-(2-methylcinnamoyl)-2-methyl-1-[2-(4-morpholinyl)ethyl]-1H-indole]
Second: COc1ccc(C(=O)c2c(C)n(CCN3CCN(C(C)=O)CC3)c3ccccc23)cc1.O=C(O)/C=C\C(=O)O [Example 23A, 1-[2-(4-acetyl-1-piperazinyl)ethyl]-2-methyl-3-(4-methoxybenzoyl)-1H-indole maleate (1:1)]
The ED50 of the first is 1.5-fold higher: 128 mg/kg for the first, 85 mg/kg for the second.

`COc1ccc(C(=O)c2c(C)n(CCN3CCCC(OC(C)=O)C3)c3ccccc23)cc1.O=C(O)/C=C\C(=O)O` (centres unmarked) [Example 21, 1-[2-(3-acetoxy-1-piperidinyl)ethyl]-2-methyl-3-(4-methoxybenzoyl)-1H-indole maleate (1:1)] and `COc1ccc(C(=O)c2c(C)n(CCN3CCCC(N)C3)c3ccccc23)cc1.O=C(O)/C=C\C(=O)O.O=C(O)/C=C\C(=O)O` (centres unmarked) [Example 27C, 1-[2-(3-amino-1-piperidinyl)ethyl]-2-methyl-3-(4-methoxybenzoyl)-1H-indole maleate (1:2)] are within 1.5-fold of each other in ED50: 31 mg/kg for the first, 29.4 mg/kg for the second.

Going from `CCOC(=O)N1CCN(CCn2c(C)c(C(=O)c3ccc(OC)cc3)c3ccccc32)CC1.O=C(O)/C=C\C(=O)O` [Example 22, 1-[2-(4-carbethoxy-1-piperazinyl)ethyl]-2-methyl-3-(4-methoxybenzoyl)-1H-indole maleate (1:1)] to `COc1ccc(C(=O)c2c(C)n(CCN)c3ccccc23)cc1.O=C(O)/C=C\C(=O)O` [Example 25B, 1-(2-aminoethyl)-2-methyl-3-(4-methoxybenzoyl)-1H-indole maleate], the ED50 falls from 66.8 mg/kg to 42 mg/kg (1.6-fold).

`COc1ccc(C(=O)c2c(C)n(CCCN3CCN(C(C)=O)CC3)c3ccc(F)cc23)cc1.CS(=O)(=O)O` [Example 23B, 5-fluoro-2-methyl-3-(4-methoxybenzoyl)-1-[3-(4-acetyl-1-piperazinyl)propyl]-1H-indole methanesulfonate] and `COc1ccc(C(=O)c2c(C)n(CCCN3CCNCC3)c3ccc(F)cc23)cc1.CS(=O)(=O)O.CS(=O)(=O)O` [Example 27D, 5-fluoro-2-methyl-3-(4-methoxybenzoyl)-1-[3-(1-piperazinyl)propyl]-1H-indole dimethanesulfonate] are within 1.5-fold of each other in ED50: 39 mg/kg for the first, 30 mg/kg for the second.

Going from `COc1ccc(C(=O)c2c(C)n(CCCN)c3ccc(F)cc23)cc1.O=C(O)/C=C\C(=O)O` [Example 25A, 1-(3-aminopropyl)-5-fluoro-2-methyl-3-(4-methoxybenzoyl)-1H-indole maleate (1:1)] to `COc1ccc(C(=O)c2c(C)n(CC(O)CN3CCCC3)c3ccc(F)cc23)cc1` (centres unmarked) [Example 31C], the ED50 falls from 82.5 mg/kg to 53 mg/kg (1.6-fold).

`Cc1c(C(=O)c2ccc(-n3ccnc3)cc2)c2cc(F)ccc2n1CCCN1CCOCC1` [Example 26F] and `COc1ccc(C(=O)c2c(C)n(CC(O)CN3CCOCC3)c3ccc(F)cc23)cc1.Cl.O` (centres unmarked) [Example 31A, 1-[2-hydroxy-3-(4-morpholinyl)propyl]-5-fluoro-2-methyl-3-(4-methoxybenzoyl)-1H-indole hydrochloride hydrate] are within 1.5-fold of each other in ED50: 61 mg/kg for the first, 58 mg/kg for the second.

First: COc1ccc(C(=O)c2c(C)n(CCN3CCNCC3)c3ccccc23)cc1.CS(=O)(=O)O.CS(=O)(=O)O [Example 27A, 2-methyl-3-(4-methoxybenzoyl)-1-[2-(1-piperazinyl)ethyl]-1H-indole dimethanesulfonate]
Second: COc1ccc(C(=O)c2c(C)n(CCNCCO)c3ccccc23)cc1 [Example 27B, 1-[2-(2-hydroxyethylamino)ethyl]-2-methyl-3-(4-methoxybenzoyl)-1H-indole]
The ED50 of the first is 2.9-fold lower: 20.7 mg/kg for the first, 59.8 mg/kg for the second.

same assay, conditions: Mus musculus, sc, 30 mg./kg. s.c.; read-out: Ach percent inhibition

Compared with `Cc1c(C(=O)c2ccc(NC(N)=O)cc2)c2ccccc2n1CCN1CCOCC1` [Example 9, 2-methyl-3-(4-carbamylaminobenzoyl)-1-[2-(4-morpholinyl)ethyl]-1H-indole], `Cc1c(C(=O)c2ccc(C=O)cc2)c2ccccc2n1CCN1CCOCC1` [Example 11, 2-methyl-3-(4-formylbenzoyl)-1-[2-(4-morpholinyl)ethyl]-1H-indole] is lower in inhibition in vivo at 30 mg/kg: 20% for the first, 13% for the second.

`Cc1c(C(=O)c2ccc(CNC(N)=NC#N)cc2)c2ccccc2n1CCN1CCOCC1` [Example 10, 2-methyl-3-(4-cyanoguanidinylmethylbenzoyl)-1-[2-(4-morpholinyl)ethyl]-1H-indole] showed an inhibition in vivo at 30 mg/kg of 7%.
